Reference: patent publication US11084852B2, “Ubiquitin interacting motif peptides as therapeutics” (OKLAHOMA MEDICAL RESEARCH FOUNDATION, priority 2015, dated 2021)
Positions of bridges follow the written chain, without caps; N, C: chain ends. Non-standard residues stand in square brackets, D forms with d. No end group written: not given here.

Columns and labels:
ER stress = ER stress and inflammation after IP3R1 downregulation; format: cell-based
Description: FIGS. 22A-D. Downregulation of IP3R1 by epsins augments ER stress-mediated inflammation in Endothelium. (FIG. 22A) Deletion of IP3R1 auguments ER stress mediated by athero-prone substances. (FIG. 22B) Inhibition of ER stress by 4-PBA protected athero-prone substances mediated ER stress due to loss of IP3R1. (FIG. 22C) Loss of epsins auguments NF-kB signaling. (FIG. 22D) NF-kB augmentation can be prevented by ER stress inhibitor 4-PBA.

[1] = cited from earlier work
gliomas = conditions: before, at the time of or after tumor implantation; cited from earlier work
[2] = HFD-induced obesity model; format: in vivo; conditions: i.p., mice fed HFD
Description: FIGS. 33A-C. […] (FIG. 33A) Male and (FIG. 33B) Female mice, n=8 in each group; P<0.001. (FIG. 33C) Representative image of PBS or AP-UIM peptide administration for 3 months.
The inventors have tested a UIM peptide (AP-UIM) in HFD-induced obesity model.

[3] = in vivo; cited from earlier work
[4] = free acid; cited from earlier work
[5] = test system: Lewis lung carcinoma (LLC) tumors; experiment: Subcutaneous LLC tumor model; design: species or system mice; conditions: mouse, in vivo
Description: C56BL/6 mice and TRAMP prostate cancer models were obtained from Jackson Laboratory. SCID/NOD immune-deficient mice were purchased from Charles River Labs (Wilmington, Mass.). WT-Flk, EC-iDKO, EC-iDKO-Flk and EC-iDKO-Notch mice were generated by crossing conditional double knockout mice (EC-iDKO) with Flk-1^fl/fl or NICD^LSL mice as described in (FIGS. 13A-D) (Pasula et al., 2012; Tessneer et al., 2014). All animal protocols have been approved by the IACUC in Oklahoma Medical Research Foundation. Animal tumor models were established as follows: • (1) Subcutaneous Tumor Models (LLC, melanoma B16 and glioma U87/SCID): LLC, melanoma and glioma tumor models were established as previously described (Pasula et al., 2012). Synthetic peptides were administered at 10 mg/kg intravenously every second day beginning after small tumors were established (20-50 mm^3; approximately 12 days post implantation). Tumor volumes were monitored every other day until euthanized following IACUC tumor scoring system. • (2) TRAMP Prostate Tumor Model (Transgenic Adenocarcinoma of Mouse Prostate). […] Mortality rates were recorded. Prostate tumors were analyzed by weighing genitourinary tract (GU), H&E staining, IHC, IF staining and Western blotting as previously described (Pasula et al., 2012; Tessneer et al., 2013). Lymph nodes, lung, liver, spleen and bones were similarly analyzed for metastasis. • (3) B16 Melanoma Metastasis Model. […] Mice were sacrificed after 5 weeks and tissues (including lung, liver and lymph nodes, etc.) were harvested and analyzed for metastasis by gross morphology, H&E, IHC or IF staining, as well as Western blotting. • (4) Orthotopical Glioma Tumor Models (U87/SCID and GL261/C56BL/6). […] Tumors were monitored by MRI as previously described (Pasula et al., 2012). […] Tumor volume was analyzed by MRI every other day until the mice died or were euthanized following IACUC tumor scoring system. Mortality rates were recorded. […]

EGFR = biological target: T1, EGFR (Mus musculus, UniProt Q01279); experiment: Biochemical pulldown assay using ex vivo tumors; format: binding, mice; conditions: biotinylated peptide, ex vivo tumor lysates
T1 construct: from tissue; host or cells: LLC or GL261 glioma subcutaneous tumors from C57BL/6 mice
Protocol: (§1) (FIGS. 15A and 15C) LLC (FIG. 15A) or Glioma GL261 (FIG. 15C) subcutaneous tumors removed from C57BL/6 mice were homogenized in lysis buffer containing 50 mM Tris-HCl pH 7.5, 150 mM NaCl, 0.05% NP-40, 10% glycerol, 1× cocktail (Roche) and 20 mM NEM (N-ethylmaleimide). Lysate protein concentration was determined by BCA kit (Pierce). 2 mg of total lysate was co-incubated with 50 μg of either biotinylated UPI peptide, UPI mutant (UPI-Mut) peptide or control peptide. Neutri-Avidin beads (Invitrogen) were then added to pulldown biotinylated UPI or control peptide. These beads were subjected to two washes with lysis buffer and two washes with ½ lysis solutions. Afterwards, beads were boiled in 2× loading buffer and the supernatant was used for Western blot analysis of VEGFR2, PDGFR-β, EGFR and FGFR1; (FIGS. 15B and 15D) Quantification of peptide pulldown of VEGFR2 in LLC (FIG. 15B) and Glioma GL261 (FIG. 15D) tumors, n=5; P values are indicated in the figures.
(§2) LLC or GL261 glioma tumors was homogenized in lysis buffer containing 50 mM Tris-HCl pH7.5, 150 mM NaCl, 0.05% NP-40, 10% Glycerol, 1× cocktail, and 20 mM NEM. Protein concentration was determined by BCA kit (Pierce). 0.5-2 mg lysates were co-incubated with 100 μM biotinylated UPI or control peptides, followed by the addition of Neutri-Avidin beads (Invitrogen) for pulldown binding assay. Beads were washed twice with lysis buffer, then twice with 1:1 lysis buffer PBS. Beads were then boiled for 5 min in 2× sample loading buffer. Denatured proteins were subjected to Western blotting using anti-VEGFR2, anti-EGFR, anti-FGFR1 and anti-PDGFR-β antibodies.

FGFR1 = biological target: T2, FGFR1 (Mus musculus, UniProt P16092); experiment: Biochemical pulldown assay using ex vivo tumors; format: binding, mice; conditions: biotinylated peptide, ex vivo tumor lysates
T2 construct: from tissue; host or cells: LLC or GL261 glioma subcutaneous tumors from C57BL/6 mice
Protocol: as §1, §2

PDGFR-β = biological target: T3, PDGFR-β (Mus musculus, UniProt P05622); experiment: Biochemical pulldown assay using ex vivo tumors; format: binding, mice; conditions: biotinylated peptide, ex vivo tumor lysates
T3 construct: from tissue; host or cells: LLC or GL261 glioma subcutaneous tumors from C57BL/6 mice
Protocol: as §1, §2

VEGFR2 = biological target: T4, VEGFR2 (Mus musculus, UniProt P35918); experiment: Biochemical pulldown assay using ex vivo tumors; format: binding, mice; conditions: biotinylated peptide, ex vivo LLC or GL261 tumor lysates
T4 construct: from tissue; host or cells: LLC or GL261 glioma subcutaneous tumors from C57BL/6 mice
Protocol: as §1, §2

T3 sequence (P05622 32-1098): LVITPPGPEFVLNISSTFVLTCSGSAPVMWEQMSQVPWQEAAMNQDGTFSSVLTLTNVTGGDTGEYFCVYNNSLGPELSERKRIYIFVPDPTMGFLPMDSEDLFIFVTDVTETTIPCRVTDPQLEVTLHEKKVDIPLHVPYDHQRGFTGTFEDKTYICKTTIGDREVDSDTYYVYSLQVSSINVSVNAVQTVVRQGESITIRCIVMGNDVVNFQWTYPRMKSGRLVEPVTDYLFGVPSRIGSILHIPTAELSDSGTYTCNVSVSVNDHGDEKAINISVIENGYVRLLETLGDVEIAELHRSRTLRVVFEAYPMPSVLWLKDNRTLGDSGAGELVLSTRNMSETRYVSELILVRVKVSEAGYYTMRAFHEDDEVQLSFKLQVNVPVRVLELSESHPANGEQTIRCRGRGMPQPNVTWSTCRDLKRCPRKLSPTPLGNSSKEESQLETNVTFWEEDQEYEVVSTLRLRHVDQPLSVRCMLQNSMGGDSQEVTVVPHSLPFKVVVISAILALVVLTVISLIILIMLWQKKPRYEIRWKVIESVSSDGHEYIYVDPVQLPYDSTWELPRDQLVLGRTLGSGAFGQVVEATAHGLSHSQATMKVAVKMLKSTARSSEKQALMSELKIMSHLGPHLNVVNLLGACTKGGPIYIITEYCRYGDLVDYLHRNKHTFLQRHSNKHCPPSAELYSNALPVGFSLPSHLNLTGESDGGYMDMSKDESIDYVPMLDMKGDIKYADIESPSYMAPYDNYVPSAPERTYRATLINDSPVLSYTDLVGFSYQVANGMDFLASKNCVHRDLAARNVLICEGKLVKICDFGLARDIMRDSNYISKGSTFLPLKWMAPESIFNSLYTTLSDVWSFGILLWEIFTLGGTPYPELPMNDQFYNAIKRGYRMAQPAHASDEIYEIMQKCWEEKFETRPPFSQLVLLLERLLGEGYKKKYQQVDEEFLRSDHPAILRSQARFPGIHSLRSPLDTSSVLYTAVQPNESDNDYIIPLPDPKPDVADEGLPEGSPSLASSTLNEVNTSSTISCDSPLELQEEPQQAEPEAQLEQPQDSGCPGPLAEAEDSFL
T2 sequence (P16092 22-822): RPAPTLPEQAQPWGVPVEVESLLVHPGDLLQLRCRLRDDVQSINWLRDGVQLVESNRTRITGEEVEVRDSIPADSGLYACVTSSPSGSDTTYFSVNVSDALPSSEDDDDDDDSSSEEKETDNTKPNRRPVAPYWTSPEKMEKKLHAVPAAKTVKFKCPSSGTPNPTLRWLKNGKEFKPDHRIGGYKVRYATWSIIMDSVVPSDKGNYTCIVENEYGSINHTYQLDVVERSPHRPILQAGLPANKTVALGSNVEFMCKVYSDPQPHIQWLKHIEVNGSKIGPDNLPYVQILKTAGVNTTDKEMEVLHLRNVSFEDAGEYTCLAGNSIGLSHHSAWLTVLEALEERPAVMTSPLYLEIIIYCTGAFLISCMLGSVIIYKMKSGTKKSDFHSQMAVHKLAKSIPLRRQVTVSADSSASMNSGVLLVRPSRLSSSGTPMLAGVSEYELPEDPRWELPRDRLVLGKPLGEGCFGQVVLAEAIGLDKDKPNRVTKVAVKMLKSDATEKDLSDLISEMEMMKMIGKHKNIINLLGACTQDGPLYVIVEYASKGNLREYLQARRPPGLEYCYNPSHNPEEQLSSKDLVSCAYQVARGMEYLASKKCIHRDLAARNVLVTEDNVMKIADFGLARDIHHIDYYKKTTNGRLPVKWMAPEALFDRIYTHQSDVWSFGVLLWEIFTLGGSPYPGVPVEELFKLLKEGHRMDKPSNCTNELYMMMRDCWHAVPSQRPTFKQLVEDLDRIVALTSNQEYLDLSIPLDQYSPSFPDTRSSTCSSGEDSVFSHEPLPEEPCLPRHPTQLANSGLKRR
T4 sequence (P35918 20-1345): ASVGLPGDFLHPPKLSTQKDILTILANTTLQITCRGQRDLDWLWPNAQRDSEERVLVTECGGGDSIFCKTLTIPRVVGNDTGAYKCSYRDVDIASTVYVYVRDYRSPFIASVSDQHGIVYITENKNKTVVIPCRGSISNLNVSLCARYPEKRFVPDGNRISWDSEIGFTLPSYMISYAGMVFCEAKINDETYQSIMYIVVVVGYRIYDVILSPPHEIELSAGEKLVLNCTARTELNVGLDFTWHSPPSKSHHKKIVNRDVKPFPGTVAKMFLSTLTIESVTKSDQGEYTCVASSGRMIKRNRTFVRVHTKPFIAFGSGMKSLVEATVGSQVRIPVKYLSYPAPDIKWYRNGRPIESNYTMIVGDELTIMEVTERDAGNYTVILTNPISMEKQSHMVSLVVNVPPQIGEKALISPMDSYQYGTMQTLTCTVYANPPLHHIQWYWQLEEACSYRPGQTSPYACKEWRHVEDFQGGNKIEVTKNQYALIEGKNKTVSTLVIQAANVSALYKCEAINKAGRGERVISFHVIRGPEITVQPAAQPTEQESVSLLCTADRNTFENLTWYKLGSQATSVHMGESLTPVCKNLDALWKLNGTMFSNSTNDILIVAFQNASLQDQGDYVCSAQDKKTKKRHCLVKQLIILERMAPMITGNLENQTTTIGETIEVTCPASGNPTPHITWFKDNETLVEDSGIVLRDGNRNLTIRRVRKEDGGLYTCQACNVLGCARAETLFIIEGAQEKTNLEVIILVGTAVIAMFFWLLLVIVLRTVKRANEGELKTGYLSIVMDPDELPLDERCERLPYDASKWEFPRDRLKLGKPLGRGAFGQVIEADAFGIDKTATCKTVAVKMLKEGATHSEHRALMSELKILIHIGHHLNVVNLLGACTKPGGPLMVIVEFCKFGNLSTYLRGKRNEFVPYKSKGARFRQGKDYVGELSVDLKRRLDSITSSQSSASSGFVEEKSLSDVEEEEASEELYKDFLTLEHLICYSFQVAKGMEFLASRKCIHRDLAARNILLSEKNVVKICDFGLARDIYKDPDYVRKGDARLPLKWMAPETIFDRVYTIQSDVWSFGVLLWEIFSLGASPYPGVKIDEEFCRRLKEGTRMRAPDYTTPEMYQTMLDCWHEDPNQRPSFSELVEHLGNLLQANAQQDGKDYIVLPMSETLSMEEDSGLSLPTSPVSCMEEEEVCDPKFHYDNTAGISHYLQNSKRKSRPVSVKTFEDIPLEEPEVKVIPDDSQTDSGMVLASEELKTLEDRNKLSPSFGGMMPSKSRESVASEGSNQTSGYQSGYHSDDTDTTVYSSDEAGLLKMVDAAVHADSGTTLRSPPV

O=C(O)CCCc1ccccc1 [4-PBA]
ER stress and inflammation (ER stress): inhibits ER stress and inflammation

CC(C)(C)[N+]([O-])=Cc1ccccc1 [PBN, phenyl N-tert-butyl nitrone]
tissue distribution ([1]; rat, in vivo): readily and rapidly distributed almost equally to all tissues | half-life ([1]; rats): about 132 minutes | tumor development (gliomas) (gliomas): able to control tumor development

AP-UIM: Antennapedia (penetratin) conjugated to the N-terminus of the epsin UIM peptide, SEQ ID NO: 40 (RQIKIWFQNRRMKWKKSGEEELQLQLALAMSKEE; not fully specified (some residues))
body weight gain [2]: significantly attenuated body weight gain

CC(C)(C)[N+]([O-])=Cc1ccc(S(=O)(=O)O)cc1S(=O)(=O)O [2,4-ds PBN, 2,4-disulfonyl phenyl-tert-butyl nitrone]
efficacy compared to PBN [3]: unexpected increase in efficacy as compared to PBN | toxicity compared to PBN [3]: marked and highly significant decrease in toxicity as compared to PBN | solubility in water [4]: greater than 1 gram/ml

UPI-Mut: UPI bearing the Q9A/A13S/K16A triple mutation in the epsin UIM, SEQ ID NO: 43 ([dS]G[dE][dE][dE][dL][dQ][dL][dA][dL][dA][dL][dS][dM][dS][dA][dE][dE][dM]G[dC][dI][dK][dS][dK][dR][dK][dC][dR]G[dD][dK]G[dP][dD][dC]; disulfide 28-36 (inferred); not fully specified)
tumor growth in LLC tumor-bearing mice, variant peptides [5]: failed to inhibit tumor growth compared to mice treated with UPI peptide | co-precipitation of EGFR (EGFR): neither UPI nor UPI-Mut peptide pulled down | co-precipitation of FGFR1 (FGFR1): neither UPI nor UPI-Mut peptide pulled down | co-precipitation of PDGFR-β (PDGFR-β): neither UPI nor UPI-Mut peptide pulled down | binding to VEGFR2 in pulldown (VEGFR2): exhibited reduced binding to VEGFR2
